Earlier results as cited in US8461086B2, “Microcapsule composition for inhibiting an ethylene response in plants, method for preparing microcapsules, and method using the microcapsule composition” (Lytone Enterprise, Inc., priority 2009, dated 2013).

Assays:
plants = settings: applied to plants
humans and livestock = settings: within the effective concentration range

CC1=CC1 [Example 1-MCP, 1-methylcyclopropene]
effective dosages (plants): 0.1 to 1.0 ppm (vol/vol)
harm to humans and livestock (humans and livestock): does no harm
